We go through 16 compounds from patent US9999650B2, “Peptide and peptidomimetic inhibitors” (Ra Pharmaceuticals, Inc., priority 2012, dated 2018).

As a reminder, the pIC50 is the negative decadic logarithm of the IC50, by convention in mol/L.

pIC50: −log10 of the molar value. Numbered stars: 1 amine (or outer) side, 2 acyl side, 3 side chain; on linkers, the order of the positions; unused ones are H or OH. Bridge positions count the residues as written; N and C are the ends. Square brackets hold non-standard residues; d marks the D form. Peptide text beside a SMILES is read from it. Ala(1H-tetrazol-5-yl) = N[C@@H](Cc1nnn[nH]1)C(=O)O; Trp(7-aza) = N[C@@H](Cc1c[nH]c2ncccc12)C(=O)O; NMeW = CN[C@@H](Cc1c[nH]c2ccccc12)C(=O)O; Phe(4-Cl) = N[C@@H](Cc1ccc(Cl)cc1)C(=O)O; X6 = Nc1ccc(CCC(N[*:1])C(=O)[*:2])cn1; X3 = O=C(C(Cc1ccc(Br)s1)N[*:1])[*:2]; mXylylene = c1cc(C[*:1])cc(C[*:2])c1; X2 = O=C(Cc1cccc(C[*:2])c1)[*:1]; Gly(cPr) = N[C@H](C(=O)O)C1CC1; Chg = N[C@H](C(=O)O)C1CCCCC1; Phg = N[C@H](C(=O)O)c1ccccc1; Tle = CC(C)(C)[C@H](N)C(=O)O; NMeA = CN[C@@H](C)C(=O)O; Thp = NC1(C(=O)O)CCOCC1; Mpa = O=C(O)CCS

This test deals with T1, human plasma kallikrein (Homo sapiens, UniProt P03952).
T1 construct: purchased Enzyme Research Laboratories HPKa 1303
T1 sequence (P03952 20-390 limits assumed): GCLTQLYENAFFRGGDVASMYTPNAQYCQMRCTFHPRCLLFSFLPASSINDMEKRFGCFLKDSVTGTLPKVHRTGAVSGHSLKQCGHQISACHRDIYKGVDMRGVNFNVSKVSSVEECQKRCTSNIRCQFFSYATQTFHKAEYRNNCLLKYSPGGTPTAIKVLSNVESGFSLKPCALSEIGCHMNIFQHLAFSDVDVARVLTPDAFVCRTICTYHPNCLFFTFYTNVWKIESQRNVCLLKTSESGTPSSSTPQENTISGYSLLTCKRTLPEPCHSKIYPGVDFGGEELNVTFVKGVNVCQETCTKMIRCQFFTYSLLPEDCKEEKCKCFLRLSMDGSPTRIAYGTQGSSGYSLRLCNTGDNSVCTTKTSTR
T1 sequence (P03952 391-638 limits assumed): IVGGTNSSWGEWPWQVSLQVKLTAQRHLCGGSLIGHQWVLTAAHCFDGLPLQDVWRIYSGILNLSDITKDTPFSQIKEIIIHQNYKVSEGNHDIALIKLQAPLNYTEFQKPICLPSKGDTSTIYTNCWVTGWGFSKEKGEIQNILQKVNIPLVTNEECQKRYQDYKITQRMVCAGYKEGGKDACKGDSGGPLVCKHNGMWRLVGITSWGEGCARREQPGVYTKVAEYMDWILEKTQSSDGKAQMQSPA
As to the kind of experiment: Enzyme inhibition assay (fluorogenic substrate H-Pro-Phe-Arg-AMC). Format: biochemical. As to conditions: Kallikrein inhibitory activity; 1 nM activated human kallikrein, 500 μM H-Pro-Phe-Arg-AMC, 1 hour room temperature; read-out: Avg. IC50. The protocol:
Activated human plasma kallikrein (Enzyme Research Laboratories, HPKa 1303) was reacted with H-Pro-Phe-Arg-7-amido-4-methylcoumarin (H-Pro-Pre-Arg-AMC) (a fluorogenic substrate for plasma as well as pancreatic and urinary kallikreins; Bachem I-1295) and candidate inhibitory peptides to determine the IC50 of the inhibitor.
Ten 8-fold serial dilutions of peptides (10 mM DMSO stocks) were performed in DMSO and then added to TCNB (50 mM Tris-HCl pH 7.2, 150 mM NaCl, 10 mM CaCl2, 0.05% Brij-35) and sonicated. 50 μL of the peptide dilutions were added to microtitre plates (96 well, black non-binding surface, Corning, 3650) and incubated for 5 minutes at room temperature with 4 nM activated human kallikrein (final concentration after addition of fluorogenic substrate: 1 nM). The samples were then incubated for 1 hour at room temperature with 2 mM H-Pro-Phe-Arg-AMC (final concentration 500 μM). Relative Fluorescence Units (RFU) were measured at excitation/emission 360 nm/460 nm by a SpectraMax M3.
Consider `C[C@@H]1NC(=O)C2(CCOCC2)NC(=O)CCSCc2cccc(c2)CSC[C@@H](C(=O)N[C@@H](Cc2c[nH]c3ncccc23)C(=O)N[C@H](C(N)=O)C(C)(C)C)NC(=O)[C@H](C2CCCCC2)NC1=O` [Compound R2147, [mXylyl(1,5)](des-NH2)C-AcPyr-A-Chg-C-AzaTrp-Tbg-NH2] ([Mpa][Thp]A[Chg]C[Trp(7-aza)][Tle]-NH2; linker 1-5 via mXylylene), for which the pIC50 was under 5.66. The value for `CC(=O)N[C@H]1CSSC[C@@H](C(N)=O)NC(=O)[C@H](C)NC(=O)[C@H]([C@@H](C)O)NC(=O)[C@H](Cc2c[nH]c3ccccc23)NC(=O)[C@@H]2CCCN2C(=O)[C@H](CO)NC(=O)[C@H](Cc2c[nH]c3ccccc23)NC(=O)[C@H](Cc2ccc(O)cc2)NC(=O)[C@H](CC(N)=O)NC1=O` [Compound R2142, [cyclo(1,10)]Ac-CNYWSPWTAC-NH2] (Ac-CNYWSPWTAC-NH2; disulfide 1-10) was 8.57; that for `CC(C)[C@H](NC(=O)[C@H](CCCNC(=N)N)NC(=O)[C@@H]1CSCc2cccc(c2)CSCCC(=O)N2CCC[C@H]2C(=O)N[C@@H](C2CCCCC2)C(=O)N1)C(=O)O` [Compound R2183, [mXylyl(1,4)](des-NH2)C-P-Chg-CR-V-OH] ([Mpa]P[Chg]CRV-OH; linker 1-4 via mXylylene) was under 5.46; that for `CC(=O)N[C@@H](CS)C(=O)N[C@@H](CC(N)=O)C(=O)N[C@@H](Cc1ccc(O)cc1)C(=O)N[C@@H](Cc1c[nH]c2ccccc12)C(=O)N[C@@H](CO)C(=O)N1CCC[C@H]1C(=O)N[C@@H](Cc1c[nH]c2ccccc12)C(=O)N[C@H](C(=O)N(C)[C@@H](C)C(=O)N[C@@H](CS)C(N)=O)[C@@H](C)O` [Compound R2234, Ac-CNYWSPWT-nMeA-C-NH2] (Ac-CNYWSPWT[NMeA]C-NH2) was 8.57.

For `CC(C)(C)[C@H](NC(=O)[C@H](CCCNC(=N)N)NC(=O)[C@@H]1CSCc2cccc(c2)CC(=O)N[C@@H](CCC(=O)O)C(=O)N2CCC[C@H]2C(=O)N[C@@H](C2CCCCC2)C(=O)N1)C(N)=O` [Compound R2264] (EP[Chg]CR[Tle]-NH2; linker N-4 via X2), the pIC50 is 5.96.

`CC[C@H](C)[C@@H]1NC(=O)[C@H](CO)NC(=O)[C@H](CCC(=O)O)NC(=O)[C@@H](NC(=O)[C@@H](N)CCSC)CSCc2cccc(c2)CSC[C@@H](C(=O)N[C@@H](CCCNC(=N)N)C(=O)N[C@H](C(=O)N[C@@H](CC(C)C)C(=O)N[C@@H](CCCNC(=N)N)C(=O)N[C@@H](Cc2ccc(O)cc2)C(=O)N[C@@H](CO)C(=O)N[C@@H](CCC(=O)O)C(N)=O)C(C)C)NC1=O` [Compound R2004, [mXylyl(2,6)]MCESICRVLRYSE-NH2] (H-MCESICRVLRYSE-NH2; linker 2-6 via mXylylene): the pIC50 is 9.30. `CC(C)(C)[C@H](NC(=O)[C@H](CCCNC(=N)N)NC(=O)[C@@H]1CCCn2cc(nn2)CCCCC(=O)N2CCC[C@H]2C(=O)N[C@@H](C2CCCCC2)C(=O)N1)C(N)=O` [Compound R2248]: the pIC50 was under 4.00. As for `CC(=O)N[C@@H](CS)C(=O)N[C@@H](CC(N)=O)C(=O)N[C@@H](Cc1ccc(O)cc1)C(=O)N[C@@H](Cc1c[nH]c2ccccc12)C(=O)N[C@@H](CO)C(=O)N1CCC[C@H]1C(=O)N(C)[C@@H](Cc1c[nH]c2ccccc12)C(=O)N[C@H](C(=O)N[C@@H](C)C(=O)N[C@@H](CS)C(N)=O)[C@@H](C)O` [Compound R2236, Ac-CNYWSP-nMeW-TAC-NH2] (Ac-CNYWSP[NMeW]TAC-NH2), the pIC50 is under 5.31. The value for `CC(=O)N[C@H]1CSCc2cccc(c2)CSC[C@@H](C(N)=O)NC(=O)[C@H](C)NC(=O)[C@H]([C@@H](C)O)NC(=O)[C@H](Cc2c[nH]c3ccccc23)NC(=O)[C@@H]2CCCN2C(=O)[C@H](CO)NC(=O)[C@H](Cc2c[nH]c3ccccc23)NC(=O)[C@H](Cc2ccc(O)cc2)NC(=O)[C@H](CC(N)=O)NC1=O` [Compound R2136, [mXylyl(1,10)]Ac-CNYWSPWTAC-NH2] (Ac-CNYWSPWTAC-NH2; linker 1-10 via mXylylene) was 8.21; that for `CC(C)[C@H](NC(=O)C(CCc1ccc(N)nc1)NC(=O)[C@@H]1CSCc2cccc(c2)CSCCC(=O)N2CCC[C@H]2C(=O)N[C@@H](C2CCCCC2)C(=O)N1)C(N)=O` (stereo partly shown) [Compound R2203, [mXylyl(1,4)](des-NH2)C-P-Chg-C-2-amino-4-(6-aminopyridin-3-yl)butanoic acid-V-NH2] ([Mpa]P[Chg]C[X6]V-NH2; linker 1-4 via mXylylene) was under 5.00; that for `CC(=O)N[C@@H](CS)C(=O)N[C@@H](CC(N)=O)C(=O)N[C@@H](Cc1ccc(O)cc1)C(=O)N[C@@H](Cc1c[nH]c2ccccc12)C(=O)N[C@@H](CO)C(=O)N1CCC[C@H]1C(=O)N[C@H](Cc1c[nH]c2ccccc12)C(=O)N[C@H](C(=O)N[C@@H](C)C(=O)N[C@@H](CS)C(N)=O)[C@@H](C)O` [Compound R2228, Ac-CNYWSPwTAC-NH2] (Ac-CNYWSP[dW]TAC-NH2) was under 4.97. The value for `CC[C@H](C)[C@@H]1NC(=O)[C@H](CO)NC(=O)[C@H](Cc2nn[nH]n2)NC(=O)[C@@H](NC(=O)[C@@H](N)CCSC)CSCc2cccc(c2)CSC[C@@H](C(=O)N[C@@H](CCCNC(=N)N)C(=O)N[C@H](C(N)=O)C(C)C)NC1=O` [Compound R2020, [mXylyl(2,6)]MC-Asp(T)-SICRV-NH2] (H-MC[Ala(1H-tetrazol-5-yl)]SICRV-NH2; linker 2-6 via mXylylene) was 7.89; that for `CC(=O)N[C@H]1CSCc2cccc(c2)CSC[C@@H](C(=O)N[C@@H](CCCNC(=N)N)C(=O)N[C@H](C(N)=O)C2CC2)NC(=O)[C@H](c2ccccc2)NC(=O)[C@H](CO)NC(=O)[C@@H](C)NC1=O` [Compound R2070, [mXylyl(1,5)]Ac-C-a-S-Phg-CR-Cppg-NH2] (Ac-C[dA]S[Phg]CR[Gly(cPr)]-NH2; linker 1-5 via mXylylene) was 6.93; that for `CC(C)(C)[C@H](NC(=O)C(Cc1ccc(Br)s1)NC(=O)[C@@H]1CSCc2cccc(c2)CSCCC(=O)N2CCC[C@H]2C(=O)N[C@@H](c2ccccc2)C(=O)N1)C(N)=O` (stereo partly shown) [Compound R2219, [mXylyl(1,4)](des-NH2)C-P-Phg-C-ABP-Tbg-NH2] ([Mpa]P[Phg]C[X3][Tle]-NH2; linker 1-4 via mXylylene) was under 4.00. As to `CC(C)(C)[C@H](NC(=O)[C@H](Cc1ccc(Cl)cc1)NC(=O)[C@@H]1CSCc2cccc(c2)CSCCC(=O)N2CCC[C@H]2C(=O)N[C@@H](c2ccccc2)C(=O)N1)C(N)=O` [Compound R2205, [mXylyl(1,4)](des-NH2)C-P-Phg-C-4-Cl-Phe-Tbg-NH2] ([Mpa]P[Phg]C[Phe(4-Cl)][Tle]-NH2; linker 1-4 via mXylylene), the pIC50 is under 4.12.

Consider `CC[C@H](C)[C@@H]1NC(=O)[C@H](CO)NC(=O)[C@H](CCC(=O)O)NC(=O)[C@@H](NC(C)=O)CSCc2cccc(c2)CSC[C@@H](C(=O)N[C@@H](CCCNC(=N)N)C(=O)N[C@H](C(=O)N[C@@H](CC(C)C)C(=O)N[C@@H](CCCNC(=N)N)C(=O)N[C@@H](Cc2ccc(O)cc2)C(=O)N[C@@H](CO)C(N)=O)C(C)C)NC1=O` [Compound R2056, [mXylyl(1,5)]Ac-CESICRVLRYS-NH2] (Ac-CESICRVLRYS-NH2; linker 1-5 via mXylylene), for which the pIC50 was 8.72.
